Source: ChEMBL document CHEMBL3351878, “Carbonic Anhydrase Inhibition with Benzenesulfonamides and Tetrafluorobenzenesulfonamides Obtained via Click Chemistry” (ACS Med Chem Lett, 2014)

Experiments:
Carbonic anhydrase 12 = Carbonic anhydrase 12 (Homo sapiens, UniProt O43570)
Carbonic anhydrase 1 = Carbonic anhydrase 1 (Homo sapiens, UniProt P00915); test: Inhibition of recombinant human carbonic anhydrase 1 preincubated for 15 mins by stopped-flow CO2 hydrase Assay
Carbonic anhydrase 9 = Carbonic anhydrase 9 (Homo sapiens, UniProt Q16790)

Sequence of Carbonic anhydrase 12 (O43570 whole entry): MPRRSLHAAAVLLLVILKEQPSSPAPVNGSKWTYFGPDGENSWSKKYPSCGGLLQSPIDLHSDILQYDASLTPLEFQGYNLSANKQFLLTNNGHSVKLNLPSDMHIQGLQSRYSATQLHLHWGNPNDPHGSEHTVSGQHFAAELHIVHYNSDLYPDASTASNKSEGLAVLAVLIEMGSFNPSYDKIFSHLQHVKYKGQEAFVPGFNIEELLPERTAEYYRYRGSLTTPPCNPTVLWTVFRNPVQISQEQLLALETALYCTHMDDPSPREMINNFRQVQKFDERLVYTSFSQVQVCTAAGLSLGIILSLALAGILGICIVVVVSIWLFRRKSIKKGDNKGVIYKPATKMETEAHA
Sequence of Carbonic anhydrase 1 (P00915 whole entry): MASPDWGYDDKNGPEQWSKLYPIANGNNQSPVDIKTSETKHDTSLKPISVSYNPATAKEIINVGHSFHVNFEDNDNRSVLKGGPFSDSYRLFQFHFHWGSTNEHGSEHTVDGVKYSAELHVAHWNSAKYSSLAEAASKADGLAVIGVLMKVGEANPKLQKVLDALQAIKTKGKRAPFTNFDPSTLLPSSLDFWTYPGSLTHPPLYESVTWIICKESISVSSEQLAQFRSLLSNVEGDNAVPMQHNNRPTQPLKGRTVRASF

Ki (Carbonic anhydrase 12) [nM] | Ki (Carbonic anhydrase 1) [nM] | Ki (Carbonic anhydrase 9) [nM] | Structure (SMILES)
3.6 | 368 | – | Cc1ccc(-c2cn(-c3ccc(S(N)(=O)=O)cc3)nn2)cc1
6 | 392 | 25.9 | NS(=O)(=O)c1ccc(-n2cc(-c3ccccc3)nn2)cc1
– | – | 5 | CCCCCc1ccc(-c2cn(-c3ccc(S(N)(=O)=O)cc3)nn2)cc1

The next lines start with the compound.

Structure (SMILES) | Ki (Carbonic anhydrase 12) [nM] | Ki (Carbonic anhydrase 1) [nM] | Ki (Carbonic anhydrase 9) [nM]
CC(C)(C)OC(=O)NCc1cn(-c2ccc(S(N)(=O)=O)cc2)nn1 | – | – | 10.5
NCc1cn(-c2ccc(S(N)(=O)=O)cc2)nn1 | – | – | 12.1
NS(=O)(=O)c1ccc(-n2cc(CCCCl)nn2)cc1 | – | – | 6.2
NS(=O)(=O)c1ccc(-n2cc(CCBr)nn2)cc1 | – | – | 6.9
NS(=O)(=O)c1ccc(-n2cc(CCCCCl)nn2)cc1 | – | – | 5.4
NS(=O)(=O)c1c(F)c(F)c(-n2cc(CCCCCl)nn2)c(F)c1F | – | – | 4.5
CCCCCc1ccc(-c2cn(-c3c(F)c(F)c(S(N)(=O)=O)c(F)c3F)nn2)cc1 | – | – | 38.9
